According to ChEMBL document CHEMBL1833869, “Effect of lipophilicity modulation on inhibition of human rhinovirus capsid binders” (Bioorg Med Chem Lett, 2011):
Values after ≈ are worked out from the molar mass of the structure shown.

Columns and labels:
PXR (NR1I2) = target: T1, PXR (NR1I2) (Homo sapiens, UniProt O75469); test: Activation of human PXR expressed in african green monkey CV1 cells transfected with pSG5-hPXRDATG and (ER6)3-tk-CAT reporter assessed as maximal activation relative to control; format: cell-based, CV-1
T1 sequence (O75469 whole entry): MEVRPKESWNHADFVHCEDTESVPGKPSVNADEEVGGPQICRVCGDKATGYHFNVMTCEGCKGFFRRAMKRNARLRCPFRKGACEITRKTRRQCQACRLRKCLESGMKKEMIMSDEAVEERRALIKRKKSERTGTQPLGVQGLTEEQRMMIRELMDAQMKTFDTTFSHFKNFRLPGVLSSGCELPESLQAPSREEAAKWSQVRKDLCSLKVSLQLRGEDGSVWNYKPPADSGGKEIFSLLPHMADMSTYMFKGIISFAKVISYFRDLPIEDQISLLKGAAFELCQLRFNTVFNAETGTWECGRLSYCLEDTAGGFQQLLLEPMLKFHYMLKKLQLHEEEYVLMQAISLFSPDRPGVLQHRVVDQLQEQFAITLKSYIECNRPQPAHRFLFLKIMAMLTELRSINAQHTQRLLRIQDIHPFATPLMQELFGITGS

[1] = Lipophilicity, log D of the compound; format: physicochemical; settings: octanol/water
rhinovirus A16 = test: Antiviral activity against Human rhinovirus 16 infected in human HeLa Ohio cells assessed as inhibition of virus-induced cytopathic effect by CellTiter-Glo assay; format: functional, organism-based; settings: Rhinovirus A
rhinovirus B14 = test: Antiviral activity against Human rhinovirus 14 infected in human HeLa Ohio cells assessed as inhibition of virus-induced cytopathic effect by CellTiter-Glo assay; format: functional, organism-based; settings: Rhinovirus B
rhinovirus A2 = test: Antiviral activity against Human rhinovirus 2 infected in human HeLa Ohio cells assessed as inhibition of virus-induced cytopathic effect by CellTiter-Glo assay; format: functional, organism-based; settings: Rhinovirus A
[2] = Aqueous equilibrium solubility of the compound by shake-flask technique; format: physicochemical; settings: buffer
[3] = Unbound fraction in human plasma; format: ADME, cell-free
[4] = Unbound fraction in rat plasma; format: ADME, cell-free
[5] = Intrinsic clearance in human microsomes after 45 mins by HPLC method; format: ADME, Microsome
[6] = Intrinsic clearance in Sprague-Dawley rat hepatocytes assessed per 10^6 cells preincubated for 5 mins measured after 90 mins; format: ADME, cell-based, Liver, Hepatocyte
Cytochrome P450 1A2 [7] = target: T2, Cytochrome P450 1A2 (Homo sapiens, UniProt P05177); test: Inhibition of CYP1A2; format: ADME
T2 sequence (P05177 whole entry): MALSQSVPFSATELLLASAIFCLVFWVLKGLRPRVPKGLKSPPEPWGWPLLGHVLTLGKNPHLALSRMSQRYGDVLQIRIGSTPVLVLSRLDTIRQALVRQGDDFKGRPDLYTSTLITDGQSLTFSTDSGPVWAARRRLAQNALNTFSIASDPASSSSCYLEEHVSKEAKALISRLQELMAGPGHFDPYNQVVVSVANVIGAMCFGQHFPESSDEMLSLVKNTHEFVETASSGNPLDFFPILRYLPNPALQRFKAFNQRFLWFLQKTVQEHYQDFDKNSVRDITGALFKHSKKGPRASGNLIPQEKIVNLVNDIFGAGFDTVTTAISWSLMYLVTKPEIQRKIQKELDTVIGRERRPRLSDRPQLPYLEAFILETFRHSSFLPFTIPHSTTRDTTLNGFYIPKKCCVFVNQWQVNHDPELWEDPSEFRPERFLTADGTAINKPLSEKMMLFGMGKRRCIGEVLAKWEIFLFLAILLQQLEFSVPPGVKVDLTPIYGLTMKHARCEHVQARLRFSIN

Cytochrome P450 2C9 [8] = target: T3, Cytochrome P450 2C9 (Homo sapiens, UniProt P11712); test: Inhibition of CYP2C9; format: ADME
T3 sequence (P11712 whole entry): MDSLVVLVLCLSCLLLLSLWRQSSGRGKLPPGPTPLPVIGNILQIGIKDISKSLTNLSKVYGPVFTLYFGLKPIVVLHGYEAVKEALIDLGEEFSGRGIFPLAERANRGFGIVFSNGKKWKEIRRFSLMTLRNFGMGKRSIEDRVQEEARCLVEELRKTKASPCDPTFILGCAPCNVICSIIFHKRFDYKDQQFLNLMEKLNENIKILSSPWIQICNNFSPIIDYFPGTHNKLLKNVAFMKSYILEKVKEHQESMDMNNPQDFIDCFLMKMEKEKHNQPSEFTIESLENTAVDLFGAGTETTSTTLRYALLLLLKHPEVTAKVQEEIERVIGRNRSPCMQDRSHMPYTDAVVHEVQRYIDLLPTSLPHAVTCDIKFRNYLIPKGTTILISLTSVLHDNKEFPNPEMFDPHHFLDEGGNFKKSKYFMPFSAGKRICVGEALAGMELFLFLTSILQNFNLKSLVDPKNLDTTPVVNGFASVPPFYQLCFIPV

Cytochrome P450 2C19 [9] = target: T4, Cytochrome P450 2C19 (Homo sapiens, UniProt P33261); test: Inhibition of CYP2C19; format: ADME
T4 sequence (P33261 whole entry): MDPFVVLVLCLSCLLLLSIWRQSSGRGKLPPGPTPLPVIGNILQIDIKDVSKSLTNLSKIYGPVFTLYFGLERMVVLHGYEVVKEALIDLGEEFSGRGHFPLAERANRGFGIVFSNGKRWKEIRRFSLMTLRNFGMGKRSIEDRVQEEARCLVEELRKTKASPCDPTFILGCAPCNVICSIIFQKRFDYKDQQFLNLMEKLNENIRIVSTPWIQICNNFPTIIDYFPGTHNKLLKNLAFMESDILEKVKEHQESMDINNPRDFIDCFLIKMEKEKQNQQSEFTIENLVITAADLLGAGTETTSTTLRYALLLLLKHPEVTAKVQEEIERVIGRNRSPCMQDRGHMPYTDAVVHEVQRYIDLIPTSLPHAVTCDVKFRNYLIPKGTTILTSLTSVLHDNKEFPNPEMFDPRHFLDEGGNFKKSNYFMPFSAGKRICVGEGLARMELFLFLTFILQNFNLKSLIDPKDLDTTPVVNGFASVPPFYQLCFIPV

Cytochrome P450 2D6 [10] = target: T5, Cytochrome P450 2D6 (Homo sapiens, UniProt P10635); test: Inhibition of CYP2D6; format: ADME
T5 sequence (P10635 whole entry): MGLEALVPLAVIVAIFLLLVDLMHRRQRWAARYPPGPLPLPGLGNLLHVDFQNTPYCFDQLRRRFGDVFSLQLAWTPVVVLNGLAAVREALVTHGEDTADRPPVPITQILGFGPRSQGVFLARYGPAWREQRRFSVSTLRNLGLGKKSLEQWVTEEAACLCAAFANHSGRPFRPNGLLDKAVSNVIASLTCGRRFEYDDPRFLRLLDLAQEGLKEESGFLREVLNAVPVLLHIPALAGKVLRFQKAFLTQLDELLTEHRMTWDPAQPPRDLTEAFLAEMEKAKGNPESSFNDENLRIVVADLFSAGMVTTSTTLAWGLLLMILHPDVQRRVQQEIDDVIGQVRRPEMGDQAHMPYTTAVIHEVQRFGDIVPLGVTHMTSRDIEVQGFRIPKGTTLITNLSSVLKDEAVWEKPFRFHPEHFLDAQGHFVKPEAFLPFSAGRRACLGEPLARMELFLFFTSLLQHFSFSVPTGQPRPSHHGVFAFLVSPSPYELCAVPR

Cytochrome P450 1A2 [11] = target: T2, Cytochrome P450 1A2; test: Time dependent inhibition of CYP1A2; format: ADME
Cytochrome P450 2C9 [12] = target: T3, Cytochrome P450 2C9; test: Time dependent inhibition of CYP2C9; format: ADME
Cytochrome P450 2C19 [13] = target: T4, Cytochrome P450 2C19; test: Time dependent inhibition of CYP2C19; format: ADME
Cytochrome P450 2D6 [14] = target: T5, Cytochrome P450 2D6; test: Time dependent inhibition of CYP2D6; format: ADME
[15] = target: T6, Nuclear receptor subfamily 1 group I member 2 (Homo sapiens, UniProt O75469); test: Activation of human PXR expressed in african green monkey CV1 cells transfected with pSG5-hPXRDATG and (ER6)3-tk-CAT reporter; format: cell-based, CV-1
T6 sequence (O75469 whole entry): T1 sequence (O75469 whole entry)

[16] = Clearance in rat at 2 mg/kg, iv; format: ADME, organism-based; design: dose 2 mg/kg, route intravenous; settings: in vivo
[17] = Half life in rat at 2 mg/kg, iv; format: ADME, organism-based; design: dose 2 mg/kg, route intravenous; settings: in vivo
[18] = Volume of distribution at steady state in rat at 2 mg/kg, iv; format: ADME, organism-based; design: dose 2 mg/kg, route intravenous; settings: in vivo, read-out: Vdss
[19] = Oral bioavailability in rat; format: ADME, organism-based; settings: in vivo
[20] = Chemical stability of compound assessed as half life; format: physicochemical
[21] = Apparent permeability of compound by PAMPA; format: ADME
Cytochrome P450 3A4 [22] = target: T7, Cytochrome P450 3A4 (Homo sapiens, UniProt P08684); test: Inhibition of CYP3A4; format: ADME
T7 sequence (P08684 whole entry): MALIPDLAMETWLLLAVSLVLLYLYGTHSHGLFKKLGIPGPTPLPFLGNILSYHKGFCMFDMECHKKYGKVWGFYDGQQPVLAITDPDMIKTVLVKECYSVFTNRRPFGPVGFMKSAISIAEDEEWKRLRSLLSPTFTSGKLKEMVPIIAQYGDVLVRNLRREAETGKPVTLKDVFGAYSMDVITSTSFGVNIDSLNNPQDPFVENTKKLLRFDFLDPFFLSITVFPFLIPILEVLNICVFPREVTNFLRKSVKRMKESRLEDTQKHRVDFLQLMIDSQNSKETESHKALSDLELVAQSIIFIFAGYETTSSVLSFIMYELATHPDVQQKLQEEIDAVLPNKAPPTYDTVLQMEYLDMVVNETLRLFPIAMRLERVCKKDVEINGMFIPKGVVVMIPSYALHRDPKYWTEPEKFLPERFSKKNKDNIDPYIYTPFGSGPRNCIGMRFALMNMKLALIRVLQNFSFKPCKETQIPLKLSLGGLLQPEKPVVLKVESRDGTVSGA

Cytochrome P450 3A4 [23] = target: T7, Cytochrome P450 3A4; test: Time dependent inhibition of CYP3A4; format: ADME

SMILES: Cc1cc(CCCOc2c(C)cc(-c3noc(C(F)(F)F)n3)cc2C)on1 [PLECONARIL]
- Emax (PXR (NR1I2)): 88%
- logD [1]: > 4.5
- IC50 (rhinovirus A16): 1000 nM
- IC50 (rhinovirus B14): < 100 nM
- IC50 (rhinovirus A2): 100 nM
- solubility thermodynamic [2]: < 2 µM
- fraction unbound [3]: 0.0013
- fraction unbound [4]: < 0.002
- microsomal CLint [5]: 22 µL/min/mg
- hepatocyte CLint [6]: 20 µL/min/1e6 cells
- IC50 (Cytochrome P450 1A2 [7]): > 10000 nM
- IC50 (Cytochrome P450 2C9 [8]): > 10000 nM
- IC50 (Cytochrome P450 2C19 [9]): > 10000 nM
- IC50 (Cytochrome P450 2D6 [10]): 6310 nM
- IC50 (Cytochrome P450 1A2 [11]): > 50100 nM
- IC50 (Cytochrome P450 2C9 [12]): > 50100 nM
- IC50 (Cytochrome P450 2C19 [13]): > 50100 nM
- IC50 (Cytochrome P450 2D6 [14]): > 50100 nM
- EC50 [15]: 251 nM

SMILES: CCOC(=O)c1ccc(OCCC2CCN(c3ccc(C)nn3)CC2)nc1
- IC50 (rhinovirus A16): 63.1 nM

SMILES: CCOC(=O)c1ccc(OCCC2CCN(c3ccc(C)nn3)CC2)cc1 [PIRODAVIR]
- IC50 (rhinovirus A16): 63.1 nM
- IC50 (rhinovirus B14): < 100 nM
- IC50 (rhinovirus A2): < 100 nM

SMILES: CCOC(=O)c1ccc(OCCC2CN(c3ccc(C)nn3)C2)cc1
- IC50 (rhinovirus A16): 31.6 nM

SMILES: CCOC(=O)c1ccc(COC2CCN(c3ccc(C)nn3)CC2)cc1
- IC50 (rhinovirus A16): 25.1 nM

SMILES: CCOC(=O)c1ccc(OCCC2(C#N)CCN(c3ccc(C)nn3)CC2)cc1
- IC50 (rhinovirus A16): 158 nM

SMILES: CCOC(=O)c1ccc(COCC2CCN(c3ccc(C)nn3)CC2)cc1
- IC50 (rhinovirus A16): 100 nM

SMILES: CCOc1nnc2cc(OCCC3CCN(c4ccc(C)nn4)CC3)ccn12
- IC50 (rhinovirus A16): 1580 nM

SMILES: Cc1ccc(N2CCC(CCOc3ccc([S+](C)[O-])cc3)CC2)nn1 (stereo not drawn)
- IC50 (rhinovirus A16): > 31600 nM

SMILES: CCOc1nc2ccc(OCCC3CCN(c4ccc(C)nn4)CC3)cn2n1
- IC50 (rhinovirus A16): 1580 nM

SMILES: CCOC(=O)c1ccc(CCN2CCN(c3ccc(C)nn3)CC2)cc1
- IC50 (rhinovirus A16): 79.4 nM

SMILES: CCOC(=O)c1ccc(COC2CN(c3ccc(C)nn3)C2)cc1
- IC50 (rhinovirus A16): 63.1 nM

SMILES: CCOC(=O)c1ccc(OCCC2CN(c3ccc(C)nn3)CCO2)cc1 (stereo not drawn)
- IC50 (rhinovirus A16): 63.1 nM

SMILES: CCOC(=O)c1ccc(OCC2CCN(c3ccc(C)nn3)C2)cc1 (stereo not drawn)
- IC50 (rhinovirus A16): 20 nM

SMILES: CCOC(=O)c1ccc(OCCC2CCN(c3ccc(C)nn3)CC2)cn1
- IC50 (rhinovirus A16): 2510 nM

SMILES: Cc1ccc(N2CCC(CCOc3ccc(S(C)(=O)=O)cc3)CC2)nn1
- IC50 (rhinovirus A16): 2000 nM

SMILES: Cc1ccc(N2CC(COc3ccc(-c4noc(C)n4)cc3)C2)nn1
- Emax (PXR (NR1I2)): 19%
- clearance [16]: 9 mL/min/kg
- half-life [17]: 2.2 h
- Vd [18]: 1.5 L/kg
- bioavailability [19]: 60%
- logD [1]: 2.6
- IC50 (rhinovirus A16): 79.4 nM
- IC50 (rhinovirus A2): 50.1 nM
- solubility thermodynamic [2]: 125 µM (≈ 42.2 µg/mL)
- fraction unbound [3]: 0.06
- fraction unbound [4]: 0.05
- microsomal CLint [5]: 26 µL/min/mg
- hepatocyte CLint [6]: 5 µL/min/1e6 cells
- half-life [20]: > 200 h
- Papp [21]: 47 ×10⁻⁶ cm/s
- IC50 (Cytochrome P450 1A2 [7]): > 10000 nM
- IC50 (Cytochrome P450 2C9 [8]): > 10000 nM
- IC50 (Cytochrome P450 2C19 [9]): > 10000 nM
- IC50 (Cytochrome P450 2D6 [10]): > 10000 nM
- IC50 (Cytochrome P450 3A4 [22]): > 10000 nM
- IC50 (Cytochrome P450 1A2 [11]): > 50100 nM
- IC50 (Cytochrome P450 2C9 [12]): > 50100 nM
- IC50 (Cytochrome P450 2C19 [13]): > 50100 nM
- IC50 (Cytochrome P450 2D6 [14]): > 50100 nM
- IC50 (Cytochrome P450 3A4 [23]): > 50100 nM
- EC50 [15]: 31600 nM

SMILES: CCOC(=O)c1ccc(OCC2CN(c3ccc(C)nn3)C2)cc1
- IC50 (rhinovirus A16): 63.1 nM
